According to patent publication US12522597B2, “Methods and compositions for modulating splicing” (Skyhawk Therapeutics, Inc., priority 2019, dated 2026):
pEC50: −log10 of the molar value.

Key:
[1] = system: mHTT protein; test: mHTT protein assay (2B7-MW1, Mesoscale Discovery); assay type: cell-based, human; conditions: GM04724 (CAG 70/20) Huntington's disease patient lymphoblast cells, 48 hours, 2B7-MW1 MSD; read-out: HTT Potency - Protein EC50 mHTT (average)
Outline: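 GM04724 Huntington's patient lymphoblasts (CAG 70/20) were treated for 48 h at 10 μM to 0.6 nM. mHTT was quantified by 2B7-MW1 MSD immunoassay, whose signal depends on polyQ expansion and HTT fragment size. Viability was run on a parallel plate by CellTiter-Glo.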

[2] = system: MDR1-MDCK cell monolayers; test: MDCK-MDR1 permeability assay (BBB penetration potential); assay type: in vitro ADME; conditions: dog, MDCK-MDR1, 120 min, 5 μM, pH 7.4
Method: (§1) Each determination is performed in duplicate. […] Analytical conditions are outlined below.

[3] = system: MDR1; test: as above; assay type: in vitro ADME; conditions: dog; for efflux ratio at 120 min, 5 μM: MDCK-MDR1, pH 7.4, MDCK-MDR1: Efflux; for Papp A→B at 120 min, 5 μM: MDCK-MDR1, pH 7.4, MDCK-MDR1: Papp A-B; for Papp B→A at 120 min, 5 μM: MDCK-MDR1, pH 7.4, MDCK-MDR1: Papp B-A
Method: as §1

| SMILES | pEC50 [1] | MDCK-MDR1: % Recov A-B [2] | MDCK-MDR1: % Recov B-A [2] | efflux ratio at 120 min, 5 μM [3] | Papp A→B at 120 min, 5 μM [3] | Papp B→A at 120 min, 5 μM [3] |
| --- | --- | --- | --- | --- | --- | --- |
| Cc1cc(-c2ccc(-c3ccc(O[C@H]4C[C@@H]5CCC[C@@H](N5)[C@H]4F)nn3)c(O)c2)cs1 (single isomer, unassigned) [101-ENT2] | 7.30 to 7.80 | 20% | 53% | 1 | 0.92 ×10⁻⁶ cm/s | 0.55 ×10⁻⁶ cm/s |
| Cc1cncc(-c2ccc(-c3ccc(O[C@@H]4C[C@H]5CCC[C@H](N5)[C@@H]4F)nn3)c(O)c2)n1 (single isomer, unassigned) [102-ENT1] | 6.30 to 7.00 | 89% | 90% | 6 | 7.66 ×10⁻⁶ cm/s | 43.1 ×10⁻⁶ cm/s |
| Cc1cncc(-c2ccc(-c3ccc(O[C@H]4C[C@@H]5CCC[C@@H](N5)[C@H]4F)nn3)c(O)c2)n1 (single isomer, unassigned) [102-ENT2] | 6.30 to 7.00 | 86% | 89% | 6 | 7.93 ×10⁻⁶ cm/s | 48.4 ×10⁻⁶ cm/s |
| Oc1cc2ncccc2cc1-c1ccc(O[C@@H]2C[C@H]3CCC[C@H](N3)[C@@H]2F)nn1 (single isomer, unassigned) [103-ENT1] | 5.00 to 6.30 | 95% | 101% | 16 | 3.92 ×10⁻⁶ cm/s | 61.5 ×10⁻⁶ cm/s |
| Oc1cc2ncccc2cc1-c1ccc(O[C@H]2C[C@@H]3CCC[C@@H](N3)[C@H]2F)nn1 (single isomer, unassigned) [103-ENT2] | 5.00 to 6.30 | 98% | 106% | 12 | 5.15 ×10⁻⁶ cm/s | 59.9 ×10⁻⁶ cm/s |
| Oc1cc2nccnc2cc1-c1ccc(O[C@@H]2C[C@H]3CCC[C@H](N3)[C@@H]2F)nn1 (single isomer, unassigned) [104-ENT1] | 5.00 to 6.30 | 95% | 92% | 6 | 7.17 ×10⁻⁶ cm/s | 45.7 ×10⁻⁶ cm/s |
| Oc1cc2nccnc2cc1-c1ccc(O[C@H]2C[C@@H]3CCC[C@@H](N3)[C@H]2F)nn1 (single isomer, unassigned) [104-ENT2] | 5.00 to 6.30 | 93% | 99% | 5 | 10.1 ×10⁻⁶ cm/s | 53.6 ×10⁻⁶ cm/s |
| Oc1cc2cccnc2cc1-c1ccc(O[C@@H]2C[C@H]3CCC[C@H](N3)[C@@H]2F)nn1 (single isomer, unassigned) [105-ENT1] | 6.30 to 7.00 | 92% | 84% | 6 | 8.12 ×10⁻⁶ cm/s | 47.1 ×10⁻⁶ cm/s |
| Oc1cc2cccnc2cc1-c1ccc(O[C@H]2C[C@@H]3CCC[C@@H](N3)[C@H]2F)nn1 (single isomer, unassigned) [105-ENT2] | 6.30 to 7.00 | 91% | 70% | 6 | 6.58 ×10⁻⁶ cm/s | 37.2 ×10⁻⁶ cm/s |
| O=c1cc(-c2ccc(-c3ccc(O[C@@H]4C[C@H]5CCC[C@H](N5)[C@@H]4F)nn3)c(O)c2)ccn1CF (single isomer, unassigned) [106-ENT1] | 6.30 to 7.00 | 102% | 90% | 48 | 1.07 ×10⁻⁶ cm/s | 51 ×10⁻⁶ cm/s |
| O=c1cc(-c2ccc(-c3ccc(O[C@H]4C[C@@H]5CCC[C@@H](N5)[C@H]4F)nn3)c(O)c2)ccn1CF (single isomer, unassigned) [106-ENT2] | 7.00 to 7.29 | 79% | 80% | 39 | 1.45 ×10⁻⁶ cm/s | 56.7 ×10⁻⁶ cm/s |
| Cn1ccc(-c2ccc(-c3ccc(O[C@@H]4C[C@H]5CCC[C@H](N5)[C@@H]4F)nn3)c(O)c2)nc1=O (single isomer, unassigned) [107-ENT1] | 6.30 to 7.00 | 90% | 90% | 90 | 0.11 ×10⁻⁶ cm/s | 10 ×10⁻⁶ cm/s |
| Cn1ccc(-c2ccc(-c3ccc(O[C@H]4C[C@@H]5CCC[C@@H](N5)[C@H]4F)nn3)c(O)c2)nc1=O (single isomer, unassigned) [107-ENT2] | 6.30 to 7.00 | 97% | 103% | 100 | 0.11 ×10⁻⁶ cm/s | 11.2 ×10⁻⁶ cm/s |
| Cn1cc(-c2ccc(-c3ccc(O[C@@H]4C[C@H]5CCC[C@H](N5)[C@@H]4F)nn3)c(O)c2)c(F)n1 (single isomer, unassigned) [109-ENT1] | 7.30 to 7.80 | 57% | 76% | 3 | 5.54 ×10⁻⁶ cm/s | 18.9 ×10⁻⁶ cm/s |
| Cn1cc(-c2ccc(-c3ccc(O[C@H]4C[C@@H]5CCC[C@@H](N5)[C@H]4F)nn3)c(O)c2)c(F)n1 (single isomer, unassigned) [109-ENT2] | 7.30 to 7.80 | 51% | 80% | 4 | 6.3 ×10⁻⁶ cm/s | 24.5 ×10⁻⁶ cm/s |
| N#Cc1ccc(-c2ccc(O[C@@H]3C[C@H]4CCC[C@H](N4)[C@@H]3F)nn2)c(O)c1 (single isomer, unassigned) [110-ENT1] | 5.00 to 6.30 | 101% | 100% | 13 | 5.37 ×10⁻⁶ cm/s | 68.2 ×10⁻⁶ cm/s |
| N#Cc1ccc(-c2ccc(O[C@H]3C[C@@H]4CCC[C@@H](N4)[C@H]3F)nn2)c(O)c1 (single isomer, unassigned) [110-ENT2] | 5.00 to 6.30 | 95% | 97% | 8 | 7.44 ×10⁻⁶ cm/s | 56.9 ×10⁻⁶ cm/s |
| N#Cc1ccc(-c2ccc(O[C@@H]3C[C@H]4CC[C@H](N4)[C@@H]3F)nn2)c(O)c1 (single isomer, unassigned) [111-ENT1] | 5.00 to 6.30 | 90% | 92% | 3 | 15.6 ×10⁻⁶ cm/s | 44.7 ×10⁻⁶ cm/s |
| N#Cc1ccc(-c2ccc(O[C@H]3C[C@@H]4CC[C@@H](N4)[C@H]3F)nn2)c(O)c1 (single isomer, unassigned) [111-ENT2] | 5.00 to 6.30 | 92% | 96% | 4 | 14.4 ×10⁻⁶ cm/s | 58.7 ×10⁻⁶ cm/s |
| Oc1cc(-n2ncc3ccccc32)ccc1-c1ccc(O[C@@H]2C[C@H]3CC[C@H](N3)[C@@H]2F)nn1 (single isomer, unassigned) [114-ENT1] | 5.00 to 6.30 | 22% | 47% | 3 | 4.74 ×10⁻⁶ cm/s | 13.5 ×10⁻⁶ cm/s |
| Oc1cc(-n2ncc3ccccc32)ccc1-c1ccc(O[C@H]2C[C@@H]3CC[C@@H](N3)[C@H]2F)nn1 (single isomer, unassigned) [114-ENT2] | 5.00 to 6.30 | 18% | 42% | 4 | 3.86 ×10⁻⁶ cm/s | 15.1 ×10⁻⁶ cm/s |
| Oc1cc(-c2nncs2)ccc1-c1ccc(O[C@@H]2C[C@H]3CCC[C@H](N3)[C@@H]2F)nn1 (single isomer, unassigned) [116-ENT1] | 7.30 to 7.80 | 88% | 91% | 8 | 7.76 ×10⁻⁶ cm/s | 59.2 ×10⁻⁶ cm/s |
| Cn1cc(-c2cc(O)c(-c3ccc(O[C@H]4C[C@@H]5CCC[C@@H](N5)[C@H]4F)nn3)c(F)c2)cn1 (single isomer, unassigned) [118-ENT2] | 6.30 to 7.00 | 52% | 80% | 8 | 4.5 ×10⁻⁶ cm/s | 36.8 ×10⁻⁶ cm/s |
| Cn1cc(-c2ccc(-c3ccc(O[C@H]4C[C@H]5CCC[C@H](N5)[C@H]4F)nn3)c(O)c2)cn1 (single isomer, unassigned) [122-ENT1] | 5.00 to 6.30 | 50% | 66% | 5 | 4.73 ×10⁻⁶ cm/s | 23.3 ×10⁻⁶ cm/s |
| Cn1cc(-c2ccc(-c3ccc(O[C@@H]4C[C@@H]5CCC[C@@H](N5)[C@@H]4F)nn3)c(O)c2)cn1 (single isomer, unassigned) [122-ENT2] | 5.00 to 6.30 | 60% | 76% | 6 | 6.08 ×10⁻⁶ cm/s | 38.4 ×10⁻⁶ cm/s |
| Oc1cc(-c2cn[nH]c2)ccc1-c1ccc(O[C@H]2C[C@@H]3COC[C@@H](N3)[C@H]2F)nn1 (single isomer, unassigned) [123-ENT2] | 6.30 to 7.00 | 87% | 93% | 10 | 7.03 ×10⁻⁶ cm/s | 69.8 ×10⁻⁶ cm/s |
